Laboratory results: PubChem BioAssay (NCI)
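Where inhibition never reached the appropriate level, the endpoint shown equals the highest concentration tested. Otherwise, values were interpolated linearly from a five-concentration, 48-hour dose response in 96-well plates. Abbreviation: GI50, concentration required for 50% inhibition of growth. TGI: total growth inhibition.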

Experiments:
Experiment in all cases: growth of human tumour cells (NCI), 48 h
[1] = tested on: NCI-H226 lung
[2] = tested on: RPMI-8226 leukemia
[3] = tested on: UO-31 renal
[4] = tested on: PC-3 prostate
[5] = tested on: NCI-H522 lung
[6] = tested on: SNB-19 CNS
[7] = tested on: HL-60(TB) leukemia
[8] = tested on: EKVX NSCLC
[9] = tested on: SF-295 CNS
[10] = tested on: NCI-H23 lung
[11] = tested on: HT29 colon
[12] = tested on: SNB-75 CNS
[13] = tested on: HCT-116 colon
[14] = tested on: HCT-15 colon
[15] = tested on: UACC-62 melanoma
[16] = tested on: CAKI-1 renal
[17] = tested on: SF-268 CNS
[18] = tested on: U251 CNS
[19] = tested on: OVCAR-5 ovarian
[20] = tested on: MDA-MB-435
[21] = tested on: MOLT-4 leukemia
[22] = tested on: KM12 colon
[23] = tested on: CCRF-CEM leukemia
[24] = tested on: SK-MEL-5 melanoma
[25] = tested on: HOP-62 NSCLC
[26] = tested on: MCF7 breast
[27] = tested on: 786-0 renal
[28] = tested on: TK-10 renal
[29] = tested on: T-47D breast
[30] = tested on: UACC-257 melanoma
[31] = tested on: SR leukemia
[32] = tested on: M14 melanoma
[33] = tested on: MDA-MB-231 breast
[34] = tested on: BT-549 breast
[35] = tested on: DU-145 prostate
[36] = tested on: COLO 205 colon
[37] = tested on: OVCAR-4 ovarian
[38] = tested on: MALME-3M melanoma
[39] = tested on: LOX IMVI melanoma
[40] = tested on: OVCAR-8 ovarian
[41] = tested on: HS 578T breast
[42] = tested on: SK-MEL-28 melanoma
[43] = tested on: NCI/ADR-RES ovarian
[44] = tested on: K-562 leukemia
[45] = tested on: SF-539 CNS
[46] = tested on: A498 renal
[47] = tested on: OVCAR-3 ovarian
[48] = tested on: SW-620 colon
[49] = tested on: IGROV1 ovarian
[50] = tested on: ACHN renal
[51] = tested on: HOP-92 NSCLC
[52] = tested on: NCI-H460 lung
[53] = tested on: SK-MEL-2 melanoma
[54] = tested on: HCC-2998 colon
[55] = tested on: A549 NSCLC
[56] = tested on: SN12C renal
[57] = tested on: RXF 393 renal
[58] = tested on: SK-OV-3 ovarian

## CCOC(=O)Cc1csc(NC(=O)COC(=O)c2ccc(OC)cc2)n1
[1]
  GI50: > 100 µM
  TGI: > 100 µM
[2]
  GI50: 12.5 µM
  TGI: 33.5 µM
[3]
  GI50: 5.76 µM
  TGI: 11.1 µM
[4]
  GI50: 26.5 µM
  TGI: > 100 µM
[5]
  GI50: 19.6 µM
  TGI: 38.5 µM
[6]
  GI50: > 100 µM
  TGI: > 100 µM
[7]
  GI50: 0.407 µM
  TGI: 2.63 µM
[8]
  GI50: 52.9 µM
  TGI: > 100 µM
[9]
  GI50: > 100 µM
  TGI: > 100 µM
[10]
  GI50: 29.8 µM
  TGI: > 100 µM
[11]
  GI50: 30.8 µM
  TGI: > 80.1 µM
[12]
  GI50: 28.3 µM
  TGI: > 56.6 µM
[13]
  GI50: > 91.9 µM
  TGI: > 100 µM
[14]
  GI50: > 100 µM
  TGI: > 100 µM
[15]
  GI50: > 100 µM
  TGI: > 100 µM
[16]
  GI50: > 100 µM
  TGI: > 100 µM
[17]
  GI50: 16.6 µM
  TGI: 40.9 µM
[18]
  GI50: 43.3 µM
  TGI: > 100 µM
[19]
  GI50: > 51.3 µM
  TGI: > 83.8 µM
[20]
  GI50: > 100 µM
  TGI: > 100 µM
[21]
  TGI: > 35.6 µM
[22]
  GI50: > 83.6 µM
  TGI: > 100 µM
[23]
  GI50: 11.1 µM
  TGI: 31.5 µM
[24]
  GI50: > 100 µM
  TGI: > 100 µM
[25]
  GI50: > 78.8 µM
  TGI: > 100 µM
[26]
  GI50: 64.2 µM
  TGI: > 100 µM
[27]
  GI50: 35.7 µM
  TGI: > 57.6 µM
[28]
  GI50: > 100 µM
  TGI: > 100 µM
[29]
  GI50: > 100 µM
  TGI: > 100 µM
[30]
  GI50: > 100 µM
  TGI: > 100 µM
[31]
  GI50: 6.04 µM
[32]
  GI50: > 100 µM
  TGI: > 100 µM
[33]
  GI50: > 78.3 µM
  TGI: > 100 µM
[34]
  GI50: 24.7 µM
  TGI: 66.3 µM
[35]
  GI50: 57.2 µM
  TGI: > 100 µM
[36]
  GI50: > 95.9 µM
  TGI: > 100 µM
[37]
  GI50: 98.2 µM
  TGI: > 100 µM
[38]
  GI50: 64.9 µM
  TGI: > 100 µM
[39]
  GI50: 11.1 µM
  TGI: > 37.5 µM
[40]
  GI50: 47.5 µM
  TGI: > 73.2 µM
[41]
  GI50: > 100 µM
  TGI: > 100 µM
[42]
  GI50: > 100 µM
  TGI: > 100 µM
[43]
  GI50: > 100 µM
  TGI: > 100 µM
[44]
  GI50: 1.16 µM
  TGI: > 60.9 µM
[45]
  GI50: 19.3 µM
  TGI: 37.7 µM
[46]
  GI50: > 100 µM
  TGI: > 100 µM
[47]
  GI50: 22.4 µM
  TGI: 46.3 µM
[48]
  GI50: > 96.1 µM
  TGI: > 100 µM
[49]
  GI50: 2.99 µM
  TGI: 8.77 µM
[50]
  GI50: > 100 µM
  TGI: > 100 µM
[51]
  GI50: 7.58 µM
  TGI: 24.3 µM
[52]
  GI50: 33.8 µM
  TGI: > 100 µM
[53]
  GI50: > 100 µM
  TGI: > 100 µM
[54]
  GI50: > 100 µM
  TGI: > 100 µM
[55]
  GI50: > 100 µM
  TGI: > 100 µM
[56]
  GI50: > 100 µM
  TGI: > 100 µM
[57]
  GI50: > 70.8 µM
  TGI: > 100 µM
[58]
  GI50: > 75.4 µM
  TGI: > 100 µM
